Assay [1] deals with T1, C145A M^pro (Severe acute respiratory syndrome coronavirus 2, UniProt P0DTD1, C3408A). Type of assay: binding, SARS-CoV-2.
Assay [2] addresses T1, C145A M^pro. It counts as binding, SARS-CoV-2. The source holds these as a separate data set.

Data on one compound can be found in paper PMC8686763, “Pre-Steady-State Kinetics of the SARS-CoV-2 Main Protease as a Powerful Tool for Antiviral Drug Discovery” (Frontiers in Pharmacology, 2021).

Molecules are shown by their SMILES.

As to `COc1cccc2[nH]c(C(=O)N[C@@H](CC(C)C)C(=O)N[C@@H](C[C@@H]3CCNC3=O)C(=O)CO)cc12` [PF-00835231], on C145A M^pro [1], the “change in Tm” value was around 2.2 °C. Also, at C145A M^pro [2], the “K 1 (= k 1/k −1)” value was found to be 0.30 ± 0.02 M⁻¹, the “K 2 (= k 2/k −2)” value was determined as 0.35 ± 0.09, the “formation of the initial complex (k 1) faster for C145A M^pro than WT” value is reported as “approximately 20 fold” and the “k 1” value is given as “(6.6 ± 0.2)×10^6 M^−1×s^−1”. For the same compound, at C145A M^pro [2], the “k 2” value is 1.0 ± 0.2 s⁻¹, the “k -1” value was determined as 22 ± 0.2 s⁻¹ and the “k -2” value was 2.8 ± 0.2 s⁻¹.
